Data set [1] relates to T1, C. trachomatis L2/434/Bu expressing GFP (CTL2-GFP).
T1 construct: L2/434/Bu GFP intracellular growth in HeLa cells
The data set can be described thus: microbe, parasite or virus in culture. Particulars: Chlamydia trachomatis, HeLa, 28.5 h; total inclusion area; read-out: % of control remaining. More on the design: C. trachomatis total inclusion area by high-content imaging, normalised to DMSO. The method, boiled down:
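Infected cells treated with library compounds were read for bulk GFP (chlamydial growth) and resorufin fluorescence (host viability), then fixed, Hoechst-stained and imaged. Inclusion area and number from GFP, plus nuclei counts, served as additional growth and viability proxies; MICs derived as previously described.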

Data set [2] relates to T2, CTL2-GFP (C. trachomatis L2/434/Bu, GFP-expressing).
T2 construct: L2/434/Bu, GFP-expressing
As to the kind of experiment: microbe, parasite or virus in culture. Set-up: Intracellular C. trachomatis growth in HeLa cells, bulk GFP fluorescence relative to DMSO. As to conditions: Chlamydia trachomatis, HeLa, 28.5 h; bulk GFP, mean of 2; read-out: % of control remaining. As to the method: MICs were calculated as described above.

Data set [3] is described as follows: in vitro. Set-up: Viability of infected HeLa host cells, resazurin conversion, bulk resorufin fluorescence relative to DMSO. As to conditions: human, hela cells; bulk resorufin, mean of 2.
A short description of data set [4]: in vitro. Particulars: human, hela cells, % viability.

The term viability denotes a read-out of living cells in per cent, often relative to untreated cells. Take `O=C(Nc1cccc(OC(=O)c2cc(S(=O)(=O)N3CCCCC3)ccc2Cl)c1)c1ccco1` [CBK262186]: in data set [1], the activity at 1 µM was 101%, the activity at 5 µM came out at 85.8% and the activity at 10 µM stood at 33.3%. In data set [2], the activity at 1 µM was determined as 110%, the activity at 5 µM was determined as 106% and the activity at 10 µM is 76.3%. In data set [3], the viability at 28.5 h, 1 µM is 101%; the viability at 28.5 h, 5 µM is 96.6%; the viability at 28.5 h, 10 µM was 100%. Besides, in data set [4], the viability at 28.5 h, 10 µM is 110%.

`CC(C)(CN)CN(Cc1ccc(-c2ccccc2)cc1)C(=O)Nc1ccccc1C(C)(C)C` [CBK002476C]: in data set [1], the activity at 1 µM stood at 114%, the activity at 5 µM came to 50.1% and the activity at 10 µM amounted to 2.01%. In data set [2], the activity at 1 µM stood at 98.7%, the activity at 5 µM turned out to be 75.3% and the activity at 10 µM was 16.4%. Besides, in data set [3], the viability at 28.5 h, 1 µM was determined as 118%; the viability at 28.5 h, 5 µM is 114%; the viability at 28.5 h, 10 µM was determined as 63.6%. Besides, the viability at 28.5 h, 10 µM in data set [4] stood at 94.2%.

For the compound `CCC(Sc1nnc2c(n1)[nH]c1ccccc12)C(=O)N1c2ccccc2Sc2ccccc21` (stereo not shown) [CBK263929], in data set [1], the activity at 1 µM came to 32.8%, the activity at 5 µM was 30.8% and the activity at 10 µM came to 13.4%. Further, in data set [2], the activity at 1 µM was 60.4%, the activity at 5 µM was 52.9% and the activity at 10 µM stood at 44.5%. Further, in data set [3], the viability at 28.5 h, 1 µM came out at 94.1%; the viability at 28.5 h, 5 µM was 89.8%; the viability at 28.5 h, 10 µM was found to be 88.6%. Also, the viability at 28.5 h, 10 µM in data set [4] was 95.1%.

In the case of `O=C(N/N=C/c1c(O)ccc2ccccc12)c1ccc(CO)nc1` [CBK261375], in data set [1], the activity at 1 µM is 112%, the activity at 5 µM is 72.5% and the activity at 10 µM worked out at 32.1%. For the same compound, in data set [2], the activity at 1 µM stood at 130%, the activity at 5 µM turned out to be 69% and the activity at 10 µM stood at 32.3%. In addition, in data set [3], the viability at 28.5 h, 1 µM was found to be 89.8%; the viability at 28.5 h, 5 µM was found to be 84.2%; the viability at 28.5 h, 10 µM worked out at 76.9%. Further, the viability at 28.5 h, 10 µM in data set [4] was 84.7%.

As for `Cc1cc2nc(-c3ccccn3)[nH]c2cc1C` [CBK000122], in data set [1], the activity at 1 µM amounted to 97.4%, the activity at 5 µM amounted to 31% and the activity at 10 µM turned out to be 9.06%. Moreover, in data set [2], the activity at 1 µM was 129%, the activity at 5 µM is 36.8% and the activity at 10 µM is 14.3%. In data set [3], the viability at 28.5 h, 1 µM was 94.7%; the viability at 28.5 h, 5 µM amounted to 90.3%; the viability at 28.5 h, 10 µM came to 89.1%. Besides, the viability at 28.5 h, 10 µM in data set [4] stood at 119%.

As for `O=C(Nc1cc(Cl)nc(Cl)c1)N(Cc1ccc(-c2ccccc2)cc1)CC1CCNCC1` [CBK049794], in data set [1], the activity at 1 µM worked out at 62.1%, the activity at 5 µM is 41.7% and the activity at 10 µM is 25.8%. In data set [2], the activity at 1 µM worked out at 115%, the activity at 5 µM was determined as 90.8% and the activity at 10 µM was 90.8%. Besides, in data set [3], the viability at 28.5 h, 1 µM came to 95.2%; the viability at 28.5 h, 5 µM was 100%; the viability at 28.5 h, 10 µM came out at 97.9%. Moreover, the viability at 28.5 h, 10 µM in data set [4] came out at 82.6%.

For `C/C(Nc1ccc(S(=O)(=O)Nc2nccc(C)n2)cc1)=C1\C(=O)N(c2nc3ccccc3s2)N=C1C(F)(F)F` [CBK263002], in data set [1], the activity at 1 µM amounted to 62.8%, the activity at 5 µM stood at 27.5% and the activity at 10 µM came to 22.8%. Moreover, in data set [2], the activity at 1 µM is 31.6%, the activity at 5 µM amounted to 15.5% and the activity at 10 µM was determined as 14.3%. Besides, in data set [3], the viability at 28.5 h, 1 µM amounted to 93.4%; the viability at 28.5 h, 5 µM was 89.8%; the viability at 28.5 h, 10 µM was determined as 88.6%. Moreover, the viability at 28.5 h, 10 µM in data set [4] was found to be 90.1%.

Turning to `OC(CN1CCN(Cc2ccccc2)CC1)Cn1c2ccc(Br)cc2c2cc(Br)ccc21` (stereo not shown) [CBK262203], in data set [1], the activity at 1 µM turned out to be 102%, the activity at 5 µM is 94.9% and the activity at 10 µM turned out to be 35%. In data set [2], the activity at 1 µM is 104%, the activity at 5 µM amounted to 98.6% and the activity at 10 µM turned out to be 88.8%. Further, in data set [3], the viability at 28.5 h, 1 µM was 94.6%; the viability at 28.5 h, 5 µM was 90.4%; the viability at 28.5 h, 10 µM was found to be 90%. In addition, in data set [4], the viability at 28.5 h, 10 µM came to 94.4%.

Take `CC1=NN(c2ccc(C)cc2)C(=O)/C1=C\Nc1ccc(S(=O)(=O)Nc2nc(C)cc(C)n2)cc1` [CBK262398]: in data set [1], the activity at 1 µM amounted to 91.7%, the activity at 5 µM was determined as 40.5% and the activity at 10 µM is 18%. Moreover, in data set [2], the activity at 1 µM worked out at 83.6%, the activity at 5 µM is 16.3% and the activity at 10 µM turned out to be 2.4%. In data set [3], the viability at 28.5 h, 1 µM was 94.6%; the viability at 28.5 h, 5 µM turned out to be 99.4%; the viability at 28.5 h, 10 µM amounted to 118%. Moreover, the viability at 28.5 h, 10 µM in data set [4] was determined as 92.8%.

With `CCC(c1ccc(F)cc1)N(C)C(=O)Cn1cc(C(=O)NC2CCCCC2)ccc1=O` (stereo not shown) [CBK286106], in data set [1], the activity at 1 µM came to 114%, the activity at 5 µM stood at 27.8% and the activity at 10 µM was 2.51%. In data set [2], the activity at 1 µM stood at 128%, the activity at 5 µM amounted to 21.7% and the activity at 10 µM turned out to be 7.58%. Moreover, in data set [3], the viability at 28.5 h, 1 µM was determined as 89.5%; the viability at 28.5 h, 5 µM was determined as 95.3%; the viability at 28.5 h, 10 µM amounted to 87.5%. In addition, the viability at 28.5 h, 10 µM in data set [4] came to 89.8%.

`CCOc1ccsc1C(=O)NC1Cc2ccccc2C1` [CBK200359]: in data set [1], the activity at 1 µM was 88.7%, the activity at 5 µM was found to be 0.493% and the activity at 10 µM was 0.44%. Besides, in data set [2], the activity at 1 µM was 57.4%, the activity at 5 µM was found to be 3.62% and the activity at 10 µM came to 6.67%. Moreover, in data set [3], the viability at 28.5 h, 1 µM is 104%; the viability at 28.5 h, 5 µM came out at 96.4%; the viability at 28.5 h, 10 µM turned out to be 93%. For the same compound, in data set [4], the viability at 28.5 h, 10 µM turned out to be 82.6%.

On to `O=C(Nc1ccc(F)c(F)c1)NC1CCC2CN(CCOc3ccccc3)CC2C1` (stereo not shown) [CBK083365T], for which, in data set [1], the activity at 1 µM was found to be 35.6%, the activity at 5 µM came to 0.438% and the activity at 10 µM was 0.173%. Further, in data set [2], the activity at 1 µM came to 34.9%, the activity at 5 µM is 8.25% and the activity at 10 µM is 5.26%. For the same compound, in data set [3], the viability at 28.5 h, 1 µM was 89.3%; the viability at 28.5 h, 5 µM was 86.5%; the viability at 28.5 h, 10 µM amounted to 88.8%. The viability at 28.5 h, 10 µM in data set [4] came to 105%.

For `CC(=O)NC[C@H]1CN(c2ccc(-c3nnc(CCC#N)s3)c(F)c2)C(=O)O1` [CBK017926], in data set [1], the activity at 1 µM came out at 15.4%, the activity at 5 µM was 0.206% and the activity at 10 µM turned out to be 0.193%. In data set [2], the activity at 1 µM is 19.4%, the activity at 5 µM is 2.09% and the activity at 10 µM was determined as 3.05%. In data set [3], the viability at 28.5 h, 1 µM worked out at 93.8%; the viability at 28.5 h, 5 µM turned out to be 92%; the viability at 28.5 h, 10 µM worked out at 95.7%. In addition, the viability at 28.5 h, 10 µM in data set [4] was 87.1%.

(Values after article PMC12040169 (PLOS Biology, 2025).)
